Bounds are passed on as bounds.

Broadly, the IC50 is the concentration at which inhibition is half-maximal.

What all share (assay type): biochemical
Assay [1] concerns the target T1, Stk6 (Homo sapiens, UniProt O14965).
T1 construct: purchased Invitrogen (Carlsbad, Calif.), screening service
T1 sequence (O14965 1-403): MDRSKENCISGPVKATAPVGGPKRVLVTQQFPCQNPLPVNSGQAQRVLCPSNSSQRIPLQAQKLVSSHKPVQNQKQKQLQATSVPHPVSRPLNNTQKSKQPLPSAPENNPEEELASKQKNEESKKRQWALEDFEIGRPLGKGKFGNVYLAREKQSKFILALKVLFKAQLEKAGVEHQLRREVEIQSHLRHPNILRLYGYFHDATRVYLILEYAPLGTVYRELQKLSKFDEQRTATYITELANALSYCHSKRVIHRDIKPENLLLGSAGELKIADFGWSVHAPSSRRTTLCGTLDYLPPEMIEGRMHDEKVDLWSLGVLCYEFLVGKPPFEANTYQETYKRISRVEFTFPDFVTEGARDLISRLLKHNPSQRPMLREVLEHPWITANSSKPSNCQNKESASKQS
The assay is described as follows: Z'-Lyte FRET kinase assay (Invitrogen), Stk6. The conditions noted are these: read-out: IC50, activity toward kinase Stk6.

The target in assay [2] is T2, Zap70 (Homo sapiens, UniProt P43403).
T2 construct: P1868.pFastBac1 ZAP70 D327-G606 HIS, WT; His7 (HHHHHHH) (C); made in house
T2 sequence (P43403 with tags, fused parts or gaps): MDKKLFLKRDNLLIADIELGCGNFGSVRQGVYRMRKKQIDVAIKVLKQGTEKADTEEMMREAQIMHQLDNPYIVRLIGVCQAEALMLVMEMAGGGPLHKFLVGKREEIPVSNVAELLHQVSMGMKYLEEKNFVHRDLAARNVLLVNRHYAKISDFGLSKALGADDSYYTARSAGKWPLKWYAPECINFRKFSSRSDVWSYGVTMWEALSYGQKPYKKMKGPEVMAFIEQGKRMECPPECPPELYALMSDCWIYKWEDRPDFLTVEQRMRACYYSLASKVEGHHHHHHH
The assay is described as follows: AlphaScreen kinase assay, Zap70. The note with it: read-out: IC50, activity toward kinase Zap70. From the text:
AlphaScreen assay was used to screen additional kinases. The assay is similarly dependent on the phosphorylation of a peptide substrate. In this assay, an antibody that recognizes phosphorylated substrate is bound to an acceptor bead. The peptide substrate is attached to biotin, which binds to a donor head that contains streptavidin. Thus phosphorylated substrate is bound by antibody and streptavidin, bringing the donor and acceptor heads into close proximity when kinase is not inhibited. The donor produces singlet oxygen which results in emission from the acceptor when they are in close proximity. Conversely, when kinase is inhibited, the donor and acceptor beads are not associated and the emission from the acceptor is reduced.
AlphaScreen assays were done using compounds dissolved in DMSO to a concentration of 20 mM. The compounds were diluted accordingly to the desired final concentrations in each sample well, using 1:3 serial dilution for a total of 8 concentration points.
(Alpha assays give light when donor and acceptor beads are brought close together.)

Assay [3] addresses T3, Kit (Homo sapiens, UniProt P10721).
T3 construct: P1332.N6 BI PTP KIT M552-K948-X COD; His6 (N); made in house; host or cells: E. coli (PTP1B co-expressed)
The assay is described as follows: AlphaScreen kinase assay, Kit. The note with it: read-out: IC50, activity toward kinase Kit.
Experimental: (§1) AlphaScreen assays were done using compounds dissolved in DMSO to a concentration of 20 mM. The compounds were diluted accordingly to the desired final concentrations in each sample well, using 1:3 serial dilution for a total of 8 concentration points. Plates were prepared such that each kinase reaction is 20 μl in 1× kinase buffer, 5% DMSO and 10 μM ATP. After incubation of the kinase reaction for 1 hour at room temperature, 5 μl of donor beads in stop buffer (50 mM EDTA in 1× kinase buffer) was added, the sample was mixed and incubated for 20 minutes at room temperature before adding 5 μl of acceptor beads in stop buffer. The samples were incubated for 60 minutes at room temperature and the signal per well was read on AlphaQuest reader.

Assay [4] deals with T4, Kdr (Homo sapiens, UniProt P35968).
T4 construct: purchased Invitrogen (assay run by Invitrogen)
In words: Z'-Lyte FRET kinase assay (Invitrogen), Kdr. The conditions noted are these: read-out: IC50, activity toward kinase Kdr.

Assay [5] deals with T5, Jnk3 (Homo sapiens, UniProt P53779).
T5 construct: purchased Upstate Biotechnology
In words: AlphaScreen kinase assay, Jnk3. The conditions noted are these: read-out: IC50, activity toward kinase Jnk3.

Assay [6] addresses T6, Ret (Homo sapiens, UniProt P07949).
T6 construct: P1378.pET-SF BI-PTP RET H661-R1012 HIS; made in house
T6 sequence (P07949 with tags, fused parts or gaps): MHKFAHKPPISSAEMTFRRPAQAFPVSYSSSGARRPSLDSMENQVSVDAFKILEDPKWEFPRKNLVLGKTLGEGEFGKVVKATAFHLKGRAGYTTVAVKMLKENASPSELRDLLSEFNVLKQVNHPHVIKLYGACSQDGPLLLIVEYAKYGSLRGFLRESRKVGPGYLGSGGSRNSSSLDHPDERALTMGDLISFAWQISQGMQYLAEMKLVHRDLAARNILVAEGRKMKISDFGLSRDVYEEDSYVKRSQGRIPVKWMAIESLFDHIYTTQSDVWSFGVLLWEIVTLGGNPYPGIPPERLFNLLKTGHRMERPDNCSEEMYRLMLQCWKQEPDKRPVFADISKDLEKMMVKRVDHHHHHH
In words: AlphaScreen kinase assay, Ret. The note with it: read-out: IC50, activity toward kinase Ret.
Experimental: as §1

For assay [7], the target named is T7, FGFR1 (Homo sapiens, UniProt P11362, C488A/C584S).
T7 construct: P1351.pET N6 BI-PTP FGFR A458-E765-X C488A, C584S; made in house; host or cells: E. coli (PTP1B co-expressed)
In words: AlphaScreen kinase assay, FGFR1. The note with it: read-out: IC50, activity toward kinase FGFR.

In assay [8] the target is T8, B-Raf V600E (Homo sapiens, UniProt P15056, V600E).
T8 construct: P4254. pFastBacBD-CDC37 BRAF D437-K722-X, V600E; His6 with pFastBac HT leader (TEV site) (N); made in house; host or cells: Sf9 (baculovirus; chaperone CDC37 co-expressed)
In words: AlphaScreen kinase assay, B-Raf V600E. The note with it: read-out: IC50, activity toward kinase B-Raf V600E.
Experimental: as §1

Assay [9] deals with T9, Fak (Homo sapiens, UniProt Q05397).
T9 construct: P1358.pFastBacHtb FAK S411-Q686-X; His6 with pFastBacHTb leader (TEV site) (N); made in house; host or cells: Sf9 (baculovirus)
In words: AlphaScreen kinase assay, Fak. The conditions noted are these: read-out: IC50, activity toward kinase Fak.

T7 sequence (P11362 458-765 C488A/C584S): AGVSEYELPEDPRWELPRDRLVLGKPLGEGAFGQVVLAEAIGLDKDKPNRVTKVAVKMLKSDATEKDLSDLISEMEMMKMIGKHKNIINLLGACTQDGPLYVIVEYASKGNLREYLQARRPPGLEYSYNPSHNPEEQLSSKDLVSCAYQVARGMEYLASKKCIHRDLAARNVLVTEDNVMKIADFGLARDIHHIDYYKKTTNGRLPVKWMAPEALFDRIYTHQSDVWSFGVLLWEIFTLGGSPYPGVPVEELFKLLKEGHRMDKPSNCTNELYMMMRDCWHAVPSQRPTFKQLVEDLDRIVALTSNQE
T3 sequence (P10721 with tags, fused parts or gaps): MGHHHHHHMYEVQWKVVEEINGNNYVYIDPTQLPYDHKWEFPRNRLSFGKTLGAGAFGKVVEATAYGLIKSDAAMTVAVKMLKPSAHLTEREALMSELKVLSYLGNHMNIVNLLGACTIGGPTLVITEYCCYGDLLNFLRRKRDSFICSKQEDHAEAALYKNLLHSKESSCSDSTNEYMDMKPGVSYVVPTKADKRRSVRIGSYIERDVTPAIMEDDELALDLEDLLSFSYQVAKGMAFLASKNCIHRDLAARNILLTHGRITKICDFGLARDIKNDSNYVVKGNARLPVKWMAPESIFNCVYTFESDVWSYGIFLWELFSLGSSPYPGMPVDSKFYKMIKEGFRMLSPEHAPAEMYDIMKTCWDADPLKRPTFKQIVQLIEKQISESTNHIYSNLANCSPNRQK
T4 sequence (P35968 20-1356): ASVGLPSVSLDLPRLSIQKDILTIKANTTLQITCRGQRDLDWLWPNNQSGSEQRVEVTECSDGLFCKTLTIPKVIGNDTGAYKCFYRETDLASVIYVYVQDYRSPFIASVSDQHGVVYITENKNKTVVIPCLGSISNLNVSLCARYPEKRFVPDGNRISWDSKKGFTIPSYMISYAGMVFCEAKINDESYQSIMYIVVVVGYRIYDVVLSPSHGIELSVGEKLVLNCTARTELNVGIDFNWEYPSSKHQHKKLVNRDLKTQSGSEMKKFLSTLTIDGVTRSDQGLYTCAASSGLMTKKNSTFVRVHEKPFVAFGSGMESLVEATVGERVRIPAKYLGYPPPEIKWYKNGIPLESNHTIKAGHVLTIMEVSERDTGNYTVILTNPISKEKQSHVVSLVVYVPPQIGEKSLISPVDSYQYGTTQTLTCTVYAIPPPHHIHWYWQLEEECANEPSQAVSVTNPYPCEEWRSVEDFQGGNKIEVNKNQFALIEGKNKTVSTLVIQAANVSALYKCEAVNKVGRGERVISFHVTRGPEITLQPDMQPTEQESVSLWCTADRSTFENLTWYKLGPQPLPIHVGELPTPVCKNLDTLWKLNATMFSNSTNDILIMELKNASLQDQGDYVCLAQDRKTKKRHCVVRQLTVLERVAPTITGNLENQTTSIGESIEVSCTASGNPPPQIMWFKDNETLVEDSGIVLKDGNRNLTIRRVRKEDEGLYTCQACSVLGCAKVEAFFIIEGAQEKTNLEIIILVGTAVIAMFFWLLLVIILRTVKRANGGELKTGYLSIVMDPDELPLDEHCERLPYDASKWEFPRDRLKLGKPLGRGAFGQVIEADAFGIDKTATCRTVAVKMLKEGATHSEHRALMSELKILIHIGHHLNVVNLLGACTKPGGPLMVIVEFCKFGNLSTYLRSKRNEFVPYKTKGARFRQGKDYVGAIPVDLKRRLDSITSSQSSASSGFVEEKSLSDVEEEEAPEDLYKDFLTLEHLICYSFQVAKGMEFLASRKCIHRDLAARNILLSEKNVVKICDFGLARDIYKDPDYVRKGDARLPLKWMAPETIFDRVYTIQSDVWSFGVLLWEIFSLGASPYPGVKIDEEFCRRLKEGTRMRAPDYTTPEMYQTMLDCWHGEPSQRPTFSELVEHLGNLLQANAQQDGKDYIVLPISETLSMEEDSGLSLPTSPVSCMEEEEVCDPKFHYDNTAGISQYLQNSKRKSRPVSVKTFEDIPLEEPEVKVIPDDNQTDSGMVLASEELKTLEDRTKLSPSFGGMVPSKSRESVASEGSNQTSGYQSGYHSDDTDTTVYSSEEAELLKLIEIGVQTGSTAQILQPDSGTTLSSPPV
T5 sequence (P53779 whole entry): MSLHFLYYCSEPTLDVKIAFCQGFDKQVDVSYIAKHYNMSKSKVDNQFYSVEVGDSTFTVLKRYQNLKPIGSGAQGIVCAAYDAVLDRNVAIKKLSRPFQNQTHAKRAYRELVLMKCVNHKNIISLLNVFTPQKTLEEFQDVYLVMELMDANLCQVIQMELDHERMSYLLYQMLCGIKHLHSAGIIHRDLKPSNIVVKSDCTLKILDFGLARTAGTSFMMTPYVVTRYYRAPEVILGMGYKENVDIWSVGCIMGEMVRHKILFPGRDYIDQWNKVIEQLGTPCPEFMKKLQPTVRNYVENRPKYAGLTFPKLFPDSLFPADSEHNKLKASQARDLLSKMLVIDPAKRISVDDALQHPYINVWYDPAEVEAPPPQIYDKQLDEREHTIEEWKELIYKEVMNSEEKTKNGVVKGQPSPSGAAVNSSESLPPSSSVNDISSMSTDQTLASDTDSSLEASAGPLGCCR
T8 sequence (P15056 with tags, fused parts or gaps V600E): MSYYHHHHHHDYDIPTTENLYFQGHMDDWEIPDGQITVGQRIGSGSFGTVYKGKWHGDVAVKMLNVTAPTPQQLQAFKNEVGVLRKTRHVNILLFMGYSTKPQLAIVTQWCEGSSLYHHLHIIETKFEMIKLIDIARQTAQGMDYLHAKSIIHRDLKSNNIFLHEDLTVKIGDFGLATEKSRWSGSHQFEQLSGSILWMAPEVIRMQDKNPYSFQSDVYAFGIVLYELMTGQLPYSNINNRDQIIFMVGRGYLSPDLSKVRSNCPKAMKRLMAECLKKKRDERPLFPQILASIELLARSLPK
T9 sequence (Q05397 411-686): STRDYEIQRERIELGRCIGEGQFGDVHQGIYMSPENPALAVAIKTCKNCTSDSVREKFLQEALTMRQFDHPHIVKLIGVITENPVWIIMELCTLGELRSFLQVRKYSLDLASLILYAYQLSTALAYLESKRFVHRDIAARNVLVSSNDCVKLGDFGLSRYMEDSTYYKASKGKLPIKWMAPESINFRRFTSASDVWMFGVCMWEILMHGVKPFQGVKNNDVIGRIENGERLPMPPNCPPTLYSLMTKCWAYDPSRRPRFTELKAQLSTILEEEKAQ

With `O=S(=O)(NCc1c[nH]c2ncccc12)c1ccc(-c2cccc(CO)c2)cc1` [Compound P-0193], the IC50 in assay [1] and in assay [2] was ≤ 10 µM each time.

On to `Fc1ccccc1-c1c[nH]c2ncccc12` [Compound P-0195], for which the IC50 in assay [3], in assay [4] and in assay [2] was ≤ 10 µM each time.

For the compound `COc1cccc(C(=O)c2c[nH]c3ncc(-c4cccnc4)cc23)c1` [Compound P-0218], the half-maximal inhibitory concentration (IC50) in [5] and in [2] was ≤ 10 µM each time.

In the case of `Cc1[nH]c2ncccc2c1-c1cccs1` [Compound P-0249], the IC50 in assay [1] and in assay [2] was ≤ 10 µM each time.

For the compound `Fc1cc(F)cc(-c2ccnc3[nH]ccc23)c1` [Compound P-0296], the IC50 in [4] and in assay [2] was ≤ 10 µM each time.

`COc1ccc(F)cc1Cc1c[nH]c2ncccc12` [Compound P-0348]: the IC50 in [1] and in assay [2] was ≤ 10 µM throughout.

With `O=C(c1cccc(F)c1)c1c[nH]c2ncc(-c3ccsc3)cc12` [Compound P-0378], the IC50 in [3], in assay [6], in assay [5] and in [2] was ≤ 10 µM throughout.

With `CC(C)c1ccc(Cc2c[nH]c3ncccc23)cn1` [Compound P-0379], the IC50 in assay [7], in [4] and in assay [2] was ≤ 10 µM in each case.

Turning to `COC(c1ccc(Br)cc1)c1c[nH]c2ncc(-c3cccc(S(C)(=O)=O)c3)cc12` (stereo not drawn) [Compound P-0434], the IC50 in assay [6], in assay [8] and in [2] was ≤ 10 µM in each case.

On to `Cc1cc(C)cc(Cc2c[nH]c3ncccc23)c1` [Compound P-0507], for which the IC50 in [7] and in [2] was ≤ 10 µM in each case.

Consider `FC(F)(F)c1ccc(-c2ccnc3[nH]ccc23)cc1` [Compound P-0694], for which the IC50 in assay [2] is ≤ 10 µM.

Consider `O=C(c1cccc(Cl)c1Cl)c1c[nH]c2ncc(-c3ccsc3)cc12` [Compound P-0698], for which the IC50 in assay [7], in assay [6], in assay [5], in assay [8] and in assay [2] was ≤ 10 µM throughout.

In the case of `COc1ccc(S(=O)(=O)NCc2ccnc3[nH]ccc23)cc1` [Compound P-0724], in [2], the IC50 is ≤ 10 µM.

With `CN(Cc1ccncc1)Cc1[nH]c2ncccc2c1-c1ccc(C(N)=O)cc1` [Compound P-0727], in assay [2], the IC50 was ≤ 10 µM.

Consider `O=C(c1cccc(O)c1)c1ccc(-c2cnc3[nH]ccc3c2)s1` [Compound P-0755], for which the IC50 in assay [3], in assay [5] and in [2] was ≤ 10 µM in each case.

For the compound `CN1CCN(Cc2ccc(C(=O)Nc3ccc(Cc4c[nH]c5ncccc45)cc3)cc2)CC1` [Compound P-0795], the IC50 in [9], in [6] and in [2] was ≤ 10 µM throughout.

As for `COc1ccc(OC)c(S(=O)(=O)NCc2c[nH]c3ncccc23)c1` [Compound P-0808], in [2], the IC50 is ≤ 10 µM.

On to `COc1cc(CCNCc2cc3cccnc3[nH]2)ccc1O` [Compound P-0836], for which the IC50 in assay [2] is ≤ 10 µM.

On to `COCCN1CCN(Cc2[nH]c3ncccc3c2-c2ccc(C(N)=O)cc2)CC1` [Compound P-0856], for which the IC50 in assay [2] is ≤ 10 µM.

As to `O=S(=O)(NCc1c[nH]c2ncccc12)c1ccc(O)cc1` [Compound P-0859], in [2], the IC50 was ≤ 10 µM.

Turning to `O=C(c1cccc(F)c1)c1c[nH]c2ncc(Br)cc12` [Compound P-0865], the IC50 in assay [7], in assay [3], in assay [6] and in assay [2] was ≤ 10 µM throughout.

With `Brc1c(CNCc2cccnc2)[nH]c2ncccc12` [Compound P-0875], in assay [2], the IC50 was ≤ 10 µM.

Regarding `CCCOc1ccc(-c2c[nH]c3ncccc23)cc1` [Compound P-0878], the IC50 in assay [2] is ≤ 10 µM.

As to `c1cnc2[nH]c(CNCCc3ccncc3)cc2c1` [Compound P-0880], the IC50 in assay [2] is ≤ 10 µM.

Regarding `Cc1cccc(-c2ccnc3[nH]cc(CNS(=O)(=O)c4ccc([N+](=O)[O-])cc4)c23)c1` [Compound P-0888], the IC50 in assay [2] was ≤ 10 µM.

Consider `Cc1[nH]c2ncccc2c1-c1ccc(F)c(F)c1` [Compound P-0929], for which the IC50 in [2] is ≤ 10 µM.

In the case of `O=S(=O)(NCc1c[nH]c2ncccc12)c1ccc(Cl)s1` [Compound P-0930], the IC50 in assay [2] was ≤ 10 µM.

Regarding `Cc1[nH]c2ncccc2c1-c1ccc(C(C)(C)C)cc1` [Compound P-0953], in assay [2], the IC50 was ≤ 10 µM.

In the case of `O=C(NCc1ccccc1Cl)NCc1c[nH]c2ncccc12` [Compound P-0982], the IC50 in assay [2] was ≤ 10 µM.

Regarding `O=Cc1ccc(-c2ccnc3[nH]ccc23)cc1` [Compound P-0996], the IC50 in assay [2] is ≤ 10 µM.

As to `Cc1cc(C(=O)c2c[nH]c3nccc(-c4cccc(/C=C/C(=O)O)c4)c23)no1` [Compound P-1000], the IC50 in assay [6], in [8] and in [2] was ≤ 10 µM each time.

Regarding `COc1cccc(C(=O)c2c[nH]c3ncc(-c4ccc(C(N)=O)cc4)cc23)c1` [Compound P-1005], the half-maximal inhibitory concentration (IC50) in assay [6], in assay [5] and in assay [2] was ≤ 10 µM throughout.

In the case of `O=C(O)/C=C/c1cccc(-c2cnc3[nH]cc(C(=O)c4ccc5nsnc5c4)c3c2)c1` [Compound P-1019], the IC50 in assay [6] and in assay [2] was ≤ 10 µM each time.

Consider `O=S(=O)(c1ccsc1)N1CCN(Cc2c[nH]c3ncccc23)CC1` [Compound P-1051], for which the IC50 in assay [2] was ≤ 10 µM.

Take `NC(=O)c1ccc(-c2cnc3[nH]cc(C(=O)c4ccc(Cl)cc4)c3c2)cc1` [Compound P-1073]: the concentration for half-maximal inhibition (IC50) in assay [6] and in [2] was ≤ 10 µM throughout.

With `NC(=O)c1ccc(-c2cnc3[nH]cc(C(=O)c4ccc5nsnc5c4)c3c2)cc1` [Compound P-1081], the IC50 in assay [6] and in assay [2] was ≤ 10 µM each time.

Consider `CS(=O)(=O)Nc1cccc(-c2cnc3[nH]cc(C(=O)c4ccc5nsnc5c4)c3c2)c1` [Compound P-1089], for which the IC50 in assay [6] and in assay [2] was ≤ 10 µM each time.

For the compound `CCCCc1ccc(S(=O)(=O)NCc2c[nH]c3ncccc23)cc1` [Compound P-1119], the IC50 in assay [6] and in assay [2] was ≤ 10 µM each time.

`O=C1CCCN1CCCNCc1c[nH]c2ncccc12` [Compound P-1184]: the IC50 in assay [2] is ≤ 10 µM.

`COCc1c[nH]c2ncccc12` [Compound P-1197]: the IC50 in assay [2] is ≤ 10 µM.
